Source: US20180368427A1, “Method of Reducing Spoilage in Harvested Produce During Storage and Shipping” (Apeel Technology, Inc., priority 2016, published 2018)

System: strawberries
Test: Average daily mass loss rate of coated strawberries stored at low relative humidity
Settings: over 4 days, 10 mg/mL in ethanol, spray coated, 23-27° C., 40-55% humidity (FIG. 7A), listed as pure PA-2G formulation (712)
Procedure: FIG. 7A is a graph showing average daily mass loss rates for coated and uncoated harvested strawberries stored at low relative humidity levels for 4 days. The coating agents included various mixtures of PA-1G and PA-2G, as detailed below. Each bar in the graph represents average daily mass loss rates for a group of 15 strawberries. The strawberries corresponding to bar 702 were untreated (control group). The strawberries corresponding to bar 704 were treated with a solution for which the coating agent was substantially pure PA-1G. The strawberries corresponding to bar 706 were treated with a solution for which the coating agent was 75% PA-1G and 25% PA-2G by mass. The strawberries corresponding to bar 708 were treated with a solution for which the coating agent was 50% PA-1G and 50% PA-2G by mass. The strawberries corresponding to bar 710 were treated with a solution for which the coating agent was 25% PA-1G and 75% PA-2G by mass. The strawberries corresponding to bar 712 were treated with a solution for which the coating agent was substantially pure PA-2G. […] FIG. 7A is a graph showing average daily mass loss rates, measured over the course of 4 days, of the untreated strawberries and of the strawberries coated with one of the five solutions described above. […]

SMILES: CCCCCCCCCCCCCCCC(=O)OC(CO)CO [PA-2G, 1,3-dihydroxypropan-2-yl palmitate]
- average daily mass loss rate: 6.1%
